For this assay, the system named is A549 human lung epithelial cells. The assay can be described thus: H2O2 oxidative stress protection, live cell count (trypan blue dye exclusion). In kind it is cell-based. The following applies: for Live cell Number: 4 hours, A549. The procedure: A549 human lung epithelial cells were seeded and treated with 2.5 mM H202 with or without lipid for 4 hours. Cells were washed and trypsinized and live cells were counted. Test Sample Composition—The extract product titled LP 0817, example 1, was mixed with water at a 30% concentration yielding a compostion of Lipid Extract 23%, Lipoic Acid 7%, Water 70%. Lipid extract (produced by alcohol extraction process cited in example 1 without lipoic acid component)—23% lipids/77% water and lipoic acid at 7% concentration tested separately. 210 mg lipoic acid was dissolved with 2.8 ml. DMSO. (93% DMSO and 7% Lipoic Acid.) This is 100% solution. This working solution was diluted to 5%, 2%, 1% to use for hydrogen peroxide study. A549 human lung epithelial cells (1.5×10^5/well in 6 well dish) were seeded and treated with 2.5 mM H202 with or without lipid for 4 hours. Cells were washed and trypsinized and live cells (trypan blue dye exclusion assay) were counted. Cell number is represented as 10^4.

Several values for one entry are separate records, joined by “and”; a condition that tells them apart may be missing. Identical values can stand only once.

Consider `O=C(O)CCCCC1CCSS1` (stereo not shown) [Lipoic Acid 7%, lipoic acid], for which the “Live cell Number” value (7% lipoic acid in DMSO working solution diluted to 1% + H2O2 (2.5 mM)) is 13 10^4 and 14 10^4; the “Live cell Number” value (7% lipoic acid in DMSO working solution diluted to 2% + H2O2 (2.5 mM)) is on record as 14 10^4; the “Live cell Number” value (7% lipoic acid in DMSO working solution diluted to 5% + H2O2 (2.5 mM)) is 10 10^4 and 12 10^4. For the same molecule, the “Protection of cells from H2O2 treatment/damage” value (A549, 2.5 mM H2O2, 4 hours) is on record as “Neither Lipid extract nor Lipoic acid protected the cells from H202 damage”.

Values taken from patent US20080003244A1, “Inflammation and Oxidative Stress Reducing Compostion for Topical or Oral Administration” (priority 2006, published 2008).
